Assay results as given in US20060084648A1, “Ethynyl derivatives as factor xa inhibitors” (Merck Patent GmbH, priority 2003, published 2006).
pIC50: −log10 of the molar value.

Legend:
FXa = FXa (Homo sapiens, UniProt P00742); test: Factor Xa inhibition (FXa-IC50, pharmacological data); assay type: biochemical
Source text: The inhibition of factor Xa by the compounds according to the invention and the measurement of the anticoagulant and antithrombotic activity can be determined by conventional in-vitro or in-vivo methods. A suitable method is described, for example, by J. Hauptmann et al. in Thrombosis and Haemostasis 1990, 63, 220-223.
The inhibition of factor Xa can be measured, for example by the method of T. Hara et al. in Thromb. Haemostas. 1994, 71, 314-319.

TF/FVIIa = biological target: T1, TF/FVIIa (Homo sapiens, UniProt P08709); test: TF/factor VIIa inhibition (TF/FVIIa-IC50, pharmacological data); assay type: biochemical
T1 construct: Coagulation factor VIIa initiates the extrinsic part of the coagulation cascade
Source text: The inhibition of factor VIIa by the compounds according to the invention and the measurement of the anticoagulant and antithrombotic activity can be determined by conventional in-vitro or in-vivo methods. A conventional method for the measurement of the inhibition of factor VIIa is described, for example, by H. F. Ronning et al. in Thrombosis Research 1996, 84, 73-81.

T1 sequence (P08709 213-466 limits assumed): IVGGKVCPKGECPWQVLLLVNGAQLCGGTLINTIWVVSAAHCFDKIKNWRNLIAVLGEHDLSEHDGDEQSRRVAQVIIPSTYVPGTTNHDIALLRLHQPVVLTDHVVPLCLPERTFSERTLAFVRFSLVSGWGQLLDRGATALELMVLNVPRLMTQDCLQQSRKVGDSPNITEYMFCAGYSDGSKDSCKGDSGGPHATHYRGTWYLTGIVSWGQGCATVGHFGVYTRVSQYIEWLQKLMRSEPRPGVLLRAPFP
T1 sequence (P08709 61-212 limits assumed): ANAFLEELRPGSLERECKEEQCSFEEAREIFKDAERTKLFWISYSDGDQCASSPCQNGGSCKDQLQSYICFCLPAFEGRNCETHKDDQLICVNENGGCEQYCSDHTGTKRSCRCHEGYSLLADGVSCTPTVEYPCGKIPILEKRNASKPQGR
T1 sequence (P13726 33-295 partner): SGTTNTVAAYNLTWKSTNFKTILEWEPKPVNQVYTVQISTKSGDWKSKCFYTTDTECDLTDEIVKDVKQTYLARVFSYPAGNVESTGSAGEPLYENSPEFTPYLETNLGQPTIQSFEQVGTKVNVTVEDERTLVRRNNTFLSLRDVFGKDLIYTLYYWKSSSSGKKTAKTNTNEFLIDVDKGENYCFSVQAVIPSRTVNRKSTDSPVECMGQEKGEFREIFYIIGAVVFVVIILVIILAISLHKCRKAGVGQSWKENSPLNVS
Chain of FXa (P00742 235-488 limits assumed): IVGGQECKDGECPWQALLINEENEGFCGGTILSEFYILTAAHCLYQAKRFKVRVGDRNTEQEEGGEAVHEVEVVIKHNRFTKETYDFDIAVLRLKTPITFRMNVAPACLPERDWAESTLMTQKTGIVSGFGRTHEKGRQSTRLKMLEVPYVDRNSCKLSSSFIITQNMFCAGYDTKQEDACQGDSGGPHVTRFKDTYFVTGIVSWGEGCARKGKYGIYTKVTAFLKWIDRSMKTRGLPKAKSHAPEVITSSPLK
Chain of FXa (P00742 41-179 limits assumed): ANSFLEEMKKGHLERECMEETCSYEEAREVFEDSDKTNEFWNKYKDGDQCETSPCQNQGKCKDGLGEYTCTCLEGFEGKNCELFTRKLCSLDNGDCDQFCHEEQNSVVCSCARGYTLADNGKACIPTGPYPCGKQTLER

SMILES	pIC50 (FXa)	pIC50 (TF/FVIIa)	melting point [°C]
C#Cc1ccc(NC(=O)N[C@H](CCC)C(=O)Nc2ccc(N3CCOCC3=O)cc2)cc1 [AA, (R)-2-[3-(4-ethynylphenyl)ureido]-N-[4-(3-oxomorpholin-4-yl)-phenyl]valeramide]	7.60	7.06	182
C#Cc1ccc(NC(=O)N[C@H](CO)C(=O)Nc2ccc(N3CCOCC3=O)cc2)cc1 [Compound 5]	7.38	7.48	–
C#Cc1ccc(NC(=O)N[C@H](CC(C)C)C(=O)Nc2ccc(N3CCOCC3=O)cc2)cc1 [AB, (R)-2-[3-(4-ethynylphenyl)ureido]-N-[4-(3-oxomorpholin-4-yl)phenyl]4-methylvaleramide]	7.44	7.39	–

Further lines, results first:

pIC50 (FXa)	pIC50 (TF/FVIIa)	melting point [°C]	SMILES
7.66	7.43	–	C#Cc1ccc(NC(=O)N[C@H](COC)C(=O)Nc2ccc(N3CCOCC3=O)cc2)cc1 [Compound 6]
7.34	6.62	–	C#Cc1ccc(NC(=O)N[C@H](CC(C)C)C(=O)Nc2ccc(N3CCNC3=N)cc2)cc1 [AC, (R)-2-[3-(4-ethynylphenyl)ureido]-N-[4-(2-iminoimidazolidin-1-yl)phenyl]4-methylvaleramide]
